Measurements reported in US20250059205A1, “Heterocyclic Compounds and Methods of Use” (AMGEN INC., priority 2021, published 2025).
Read-outs that look alike come from different tables or passages of the source.

Legend:
[1] = biological target: His-tagged KRAS G12D protein (Homo sapiens, UniProt P01116, G12D); assay: KRAS G12D TR-FRET Assay; format: binding
Experimental: Compounds of interest were prepared in a dose-response titration in DMSO, and 80 nL were added via Labcyte Echo to each well of a 384-well plate (Perkin Elmer 6008280). […] The plate was incubated for 30 minutes at room temperature. Biotinylated KRPep-2d substrate (Amgen) was diluted to 20 nM in Assay Buffer and 2 μL was added to all wells and incubated for 1 h at room temperature. Detection Reagent (0.4 nM LANCE Eu-W1024 Anti-6xHis (Perkin Elmer AD0401), 5 nM streptavidin-d2 (Cisbio 610SADLA)) was prepared in Assay Buffer, then 4 μL was added to the plate and incubated for 1 h at room temperature. Plates were read using PerkinElmer EnVision (ex: 320 nm, em1: 665 nm, em2: 615 nm) and em1/em2 data was used to generate curve fits using a 4-parameter logistic model to calculate IC50 values.

[2] = biological target: GDP-bound KRAS protein (aa 1-169), containing both G12D and C118A amino acid substitutions (Homo sapiens, UniProt P01116, C118A/G12D); assay: KRAS G12D Coupled Nucleotide Exchange Assay; format: biochemical; conditions: 2 h compound pre-incubation
Experimental: Following compound pre-incubation, purified SOS protein (aa 564-1049) and GTP (Roche 10106399001) were added to the assay wells and incubated for an additional 30 min. […] The assay plates were then read on a PerkinElmer EnVision Multilabel Reader, using AlphaScreen® technology, and data were analyzed using a 4-parameter logistic model to calculate IC50 values.

[3] = test system: Phosphorylation of ERK1/2 in AsPC-1 cells; assay: Phospho-ERK1/2 MSD Assay (AsPC-1 cells); format: cell-based; conditions: Homo sapiens, read-out: p-ERK (AsPC-1 cells) IC50
Experimental: (§1) AsPC-1 (ATCC® CRL-1682™) cells were cultured in RPMI 1640 Medium (ThermoFisher Scientific 11875093) containing 10% fetal bovine serum (ThermoFisher Scientific 16000044) and 1× penicillin-streptomycin-glutamine (ThermoFisher Scientific 10378016). Sixteen hours prior to compound treatment, AsPC-1 cells were seeded in 96-well cell culture plates at a density of 25,000 cells/well and incubated at 37° C., 5% CO2. A compound dose-response titration was diluted in growth media, added to appropriate wells of a cell culture plate, and then incubated at 37° C., 5% CO2 for 2 hours. Following compound treatment, cells were washed with ice-cold Dulbecco's phosphate-buffered saline, no Ca^2+ or Mg^2+ (ThermoFisher Scientific 14190144), and then lysed in RIPA buffer (50 mM Tris-HCl pH 7.5, 1% Igepal, 0.5% sodium deoxycholate, 150 mM NaCl, and 0.5% sodium dodecyl sulfate) containing protease inhibitors (Roche 4693132001) and phosphatase inhibitors (Roche 4906837001). Phosphorylation of ERK1/2 in compound-treated lysates was assayed using Phospho-ERK1/2 Whole Cell Lysate kits (Meso Scale Discovery K151DWD) according to the manufacturer's protocol. Assay plates were read on a Meso Scale Discovery Sector Imager 6000, and data were analyzed using a 4-parameter logistic model to calculate IC50 values.

[4] = test system: Phosphorylation of ERK1/2 in A-427 cells; assay: Phospho-ERK1/2 MSD Assay (A-427 cells); format: cell-based; conditions: Homo sapiens, A-427, 2 h, 2 h treatment, read-out: p-ERK (A427 cells) IC50
Experimental: as §1, with “A-427” for “AsPC-1”, “HTB-53™)” for “CRL-1682™)”, “h.” for “hours.”

Chain of His-tagged KRAS G12D protein (P01116 1-188 isoform P01116-2 G12D): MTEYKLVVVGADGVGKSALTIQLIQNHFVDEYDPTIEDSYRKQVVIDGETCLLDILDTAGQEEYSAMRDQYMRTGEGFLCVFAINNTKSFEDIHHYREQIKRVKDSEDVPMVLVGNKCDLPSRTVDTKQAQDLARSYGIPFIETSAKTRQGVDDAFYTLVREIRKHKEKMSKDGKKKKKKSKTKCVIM
Chain of GDP-bound KRAS protein (aa 1-169), containing both G12D and C118A amino acid substitutions (P01116 1-169 isoform P01116-2 G12D/C118A): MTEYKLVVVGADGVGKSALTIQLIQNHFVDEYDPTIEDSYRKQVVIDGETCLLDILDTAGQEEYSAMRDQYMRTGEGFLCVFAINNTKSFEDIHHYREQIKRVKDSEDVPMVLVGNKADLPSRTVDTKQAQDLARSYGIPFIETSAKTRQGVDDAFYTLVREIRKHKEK

SMILES	IC50 [1] [nM]	Avg 2 h Coupled Exchange IC50 [2] [nM]	IC50 ([3]; ASPC1, 2 h, 2 hours treatment) [nM]	IC50 [4] [nM]	IC50 ([3]; ASPC1, 2 hours treatment) [nM]
CCc1c(F)ccc2cc(O)cc(-c3c(F)cc4c(N5CC6CCC(C5)N6)nc(OCC56CCCN5C[C@H](F)C6)nc4c3F)c12 (atropisomer, axis not shown; (M)) [Example 232, (M)-4-(4-((1R,5S)-3,8-diazabicyclo[3.2.1]octan-3-yl)-6,8-difluoro-2-(((2R,7aS)-2-fluorotetrahydro-1H-pyrrolizin-7a(5H)-yl)methoxy)quinazolin-7-yl)-5-ethyl-6-fluoronaphthalen-2-ol]	1	2	8	3	–
Oc1cc(-c2c(F)cc3c(N4C[C@@H]5CC[C@H]4CN5)nc(OCC45CCCN4C[C@H](F)C5)nc3c2F)c2c(F)c(F)ccc2c1 (atropisomer, axis not shown; (M)) [Example 233, (M)-4-(4-((1S,4S)-2,5-Diazabicyclo[2.2.2]octan-2-yl)-6,8-difluoro-2-(((2R,7aS)-2-fluorotetrahydro-1H-pyrrolizin-7a(5H)-yl)methoxy)quinazolin-7-yl)-5,6-difluoronaphthalen-2-ol]	1	1	27	5	–
CCc1c(F)ccc2cc(O)cc(-c3c(O)cc4c(N5CC6CCC(C5)N6)nc(OCC56CCCN5C[C@H](F)C6)nc4c3F)c12 (atropisomer, axis not shown; (M)) [Example 234, (M)-4-((1R,5S)-3,8-Diazabicyclo[3.2.1]octan-3-yl)-7-(8-ethyl-7-fluoro-3-hydroxynaphthalen-1-yl)-8-fluoro-2-(((2R,7aS)-2-fluorotetrahydro-1H-pyrrolizin-7a(5H)-yl)methoxy)quinazolin-6-ol]	1	2	22	–	–
CCc1c(F)ccc2cc(O)cc(-c3c(F)cc4c(N5C6CCC5C(=O)NC6)nc(OC[C@@]56CCCN5C[C@H](F)C6)nc4c3F)c12 (single isomer, unassigned) [Example 175]	6	4	1560	448	–
Oc1cc(-c2c(F)cc3c(N4[C@@H]5CC[C@H]4CNC5)nc(OC[C@@]45CCCN4C[C@H](F)C5)nc3c2F)c2ccccc2c1 [Example 12, 4-(4-((1R,5S)-3,8-diazabicyclo[3.2. 1]octan-8-yl)-6,8-difluoro-2-(((2R,7aS)-2-fluorotetrahydro-1H-pyrrolizin-7a(5H)-yl)methoxy)quinazolin-7-yl)naphthalen-2-ol]	–	–	293	90	–
Oc1cc(-c2ccc3c(N4C[C@H]5COC[C@@H](C4)N5)nc(OC[C@@]45CCCN4C[C@H](F)C5)nc3c2F)c2ccccc2c1 [Example 16, 4-(4-((1R,5S)-3-oxa-7,9-diazabicyclo[3.3. 1]nonan-7-yl)-8-fluoro-2-(((2R,7aS)-2-fluorotetrahydro-1H-pyrrolizin-7a(5H)-yl)methoxy)quinazolin-7-yl)naphthalen-2-ol]	20	7	4820	–	–
Oc1cc(-c2c(F)cc3c(N4C[C@H]5CC[C@@H](C4)N5)nc(OC[C@]45CCCN4C[C@H](F)C5)nc3c2F)c2ccccc2c1 [Example 43, 4-(4-((1R,5S)-3,8-diazabicyclo[3.2. 1]octan-3-yl)-6,8-difluoro-2-(((2R,7aR)-2-fluorotetrahydro-1H-pyrrolizin-7a(5H)-yl)methoxy)quinazolin-7-yl)naphthalen-2-ol]	–	–	90	16	–
Oc1cc(-c2c(F)cc3c(N4C[C@H]5CC[C@@H](C4)N5)nc(OC[C@@]45CCCN4C[C@H](F)C5)nc3c2F)c2ccccc2c1 [Example 47, 4-(4-((1R,5S)-3,8-diazabicyclo[3.2. 1]octan-3-yl)-6,8-difluoro-2-(((2R,7aS)-2-fluorotetrahydro-1H-pyrrolizin-7a(5H)-yl)methoxy)quinazolin-7-yl)naphthalen-2-ol]	–	–	–	11	–
Oc1cc(-c2c(F)cc3c(N4[C@@H]5CC[C@H]4CNC5)nc(OC[C@@]45CCCN4C[C@H](F)C5)nc3c2O)c2ccccc2c1 [Example 102, 4-((1R,5S)-3,8-Diazabicyclo[3.2.1]octan-8-yl)-6-fluoro-2-(((2R,7aS)-2-fluorotetrahydro-1H-pyrrolizin-7a(5H)-yl)methoxy)-7-(3-hydroxynaphthalen-1-yl)quinazolin-8-ol]	144	55	–	–	10100
C=Cc1c(F)ccc2cccc(-c3ccc4c(N5[C@@H]6CC[C@H]5CNC6)nc(OC[C@@]56CCCN5C[C@H](F)C6)nc4c3)c12 [Example 104, 4-((1R,5S)-3,8-diazabicyclo[3.2.1]octan-8-yl)-7-(7-fluoro-8-vinylnaphthalen-1-yl)-2-(((2R,7aS)-2-fluorotetrahydro-1H-pyrrolizin-7a(5H)-yl)methoxy)quinazoline]	544	2300	–	–	–
Oc1cc(-c2ccc3c(C4=CC5CCC(C4)N5)nc(OC[C@@]45CCCN4C[C@H](F)C5)nc3c2)c2ccccc2c1 (stereo partly drawn) [Example 108]	11700	671	420	–	–
CCc1c(F)ccc2cc(O)cc(-c3ccc4c(N5C[C@@H]6CC[C@](F)(C5)N6)nc(OC[C@@]56CCCN5C[C@H](F)C6)nc4c3F)c12 [Example 178, 5-ethyl-6-fluoro-4-(8-fluoro-4-((1S,5S)-1-fluoro-3,8-diazabicyclo[3.2.1]octan-3-yl)-2-(((2R,7aS)-2-fluorotetrahydro-1H-pyrrolizin-7a(5H)-yl)methoxy)quinazolin-7-yl)naphthalen-2-ol]	3	5	143	–	–
CCc1c(F)ccc2cc(O)cc(-c3ccc4c(N5C[C@H]6CC[C@@](F)(C5)N6)nc(OC[C@@]56CCCN5C[C@H](F)C6)nc4c3F)c12 [Example 179, 5-ethyl-6-fluoro-4-(8-fluoro-4-((1R,5R)-1-fluoro-3,8-diazabicyclo[3.2.1]octan-3-yl)-2-(((2R,7aS)-2-fluorotetrahydro-1H-pyrrolizin-7a(5H)-yl)methoxy)quinazolin-7-yl)naphthalen-2-ol]	2	4	46	–	–
CCc1c(F)ccc2cc(O)cc(-c3ccc4c(N5C[C@H]6CC[C@@H](C5)N6)cc(OC[C@@]56CCCN5C[C@H](F)C6)nc4c3)c12 [Example 210, 4-(4-((1R,5S)-3,8-Diazabicyclo[3.2.1]octan-3-yl)-2-(((2R,7aS)-2-fluorotetrahydro-1H-pyrrolizin-7a(5H)-yl)methoxy)quinolin-7-yl)-5-ethyl-6-fluoronaphthalen-2-ol]	44	69	–	–	–
CCc1c(F)ccc2cc(O)cc(-c3c(F)cc4c(N5C[C@H]6CC[C@@H](C5)N6)nc(OCC5(C)CCC(=O)N5)nc4c3F)c12 (stereo partly drawn) [Example 216, 5-(((4-((1R,5S)-3,8-diazabicyclo[3.2.1]octan-3-yl)-7-(8-ethyl-7-fluoro-3-hydroxynaphthalen-1-yl)-6,8-difluoroquinazolin-2-yl)oxy)methyl)-5-methylpyrrolidin-2-one]	5	9	834	–	–
